The source of these data is US5843904A, “Inhibitors of interleukin-1βconverting enzyme” (Vertex Pharmaceuticals, Inc., priority 1995, dated 1998).

One test addresses T1, ICE (Homo sapiens, UniProt P29466).
T1 construct: The active enzyme exists as a tetramer of two p20 and two p10 subunits
T1 sequence (P29466 120-297 limits assumed): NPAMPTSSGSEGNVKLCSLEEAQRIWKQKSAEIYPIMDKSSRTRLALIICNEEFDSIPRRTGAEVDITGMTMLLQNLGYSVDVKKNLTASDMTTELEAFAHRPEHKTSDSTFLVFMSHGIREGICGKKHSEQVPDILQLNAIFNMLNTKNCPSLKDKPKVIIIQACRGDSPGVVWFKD
T1 sequence (P29466 317-404 limits assumed): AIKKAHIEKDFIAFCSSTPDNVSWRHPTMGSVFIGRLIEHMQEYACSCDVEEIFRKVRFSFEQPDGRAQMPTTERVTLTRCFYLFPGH
The test can be described thus: Inhibition of ICE: enzyme assay with UV-visible substrate (Succinyl-Tyr-Val-Ala-Asp-pNitroanilide). It is filed as biochemical. The settings on record: UV-visible substrate assay of Example 1; pH 8.1, 37° C., 80 μM substrate. An excerpt: The term "Ki " refers to a numerical measure of the effectiveness of a compound in inhibiting the activity of a target enzyme such as ICE. Lower values of Ki reflect higher effectiveness. The Ki value is a derived by fitting experimentally determined rate data to standard enzyme kinetic equations (see I. H. Segel, Enzyme Kinetics, Wiley-Interscience, 1975).
1. Enzyme assay with UV-visible substrate
This assay is run using an Succinyl-Tyr-Val-Ala-Asp-pNitroanilide substrate. Synthesis of analogous substrates is described by L. A. Reiter (Int. J. Peptide Protein Res. 43, 87-96 (1994)). The assay mixture contains:
65 μl buffer (10 mM Tris, 1 mM DTT, 0.1% CHAPS @pH 8.1)
10 μl ICE (50 nM final concentration to give a rate of ~1 mOD/min)
5 μl DMSO/Inhibitor mixture 20 μl 400 μM Substrate (80 μM final concentration)
100 μl total reaction volume
The visible ICE assay is run in a 96-well microtiter plate. Buffer, ICE and DMSO (if inhibitor is present) are added to the wells in the order listed. The components are left to incubate at room temperature for 15 minutes starting at the time that all components are present in all wells. The microtiter plate reader is set to incubate at 37° C. After the 15 minute incubation, substrate is added directly to the wells and the reaction is monitored by following the release of the chromophore (pNA) at 405-603 nm at 37° C. for 20 minutes. A linear fit of the data is performed and the rate is calculated in mOD/min. DMSO is only present during experiments involving inhibitors, buffer is used to make up the volume to 100 μl in the other experiments.
The following Ki values were determined for compounds 706, 710, 719, 720, 725-727, 729, 731, 733, 743, 745, and 747-757 using the assay described in Example 1.

Test [1] deals with primary cells or cell lines. The settings on record: inhibition of one or more ICE homologs; cited from earlier work.

Non-standard residues stand in square brackets, D forms with d. Residues, ends and D or L forms follow the SMILES beside them. No end group written: not given here. *: point of attachment. 4Abz = Nc1ccc(C(=O)O)cc1; Nphe = O=C(O)CNCc1ccccc1; Bz = O=C(c1ccccc1)*; CH2Cl = ClC*

For the compound `CC(C)[C@H](NC(=O)c1ccccc1)C(=O)N(CC(=O)N[C@H](C=O)CC(=O)O)Cc1ccccc1` [Compound 706, 3(S)-(2-((2(S)-Benzoylamino-3-methylbutyryl)benzylamino)acetylamino)-4-oxo-butyric Acid] (Bz-Val-[Nphe]-Asp-aldehyde), affinity on ICE was put at a Ki of 69 nM.
On the same count and under the same terms, then `CC(C)[C@H](NC(=O)c1ccccc1)C(=O)N(CC(=O)N[C@@H](CC(=O)O)C(=O)c1nc2cc(F)cc(Cl)c2o1)Cc1ccccc1` [Compound 719], with 20 nM; and `CC(C)[C@H](NC(=O)c1ccccc1)C(=O)N(CC(=O)N[C@@H](CC(=O)O)C(=O)c1nc2cc(Cl)cc(Cl)c2o1)Cc1cccnc1` [Compound 720], with 33 nM.
Same read-out and setting: then `CC(C)[C@H](NC(=O)c1ccccc1)C(=O)N(CC(=O)N[C@@H](CC(=O)O)C(=O)c1nc2cc(F)cc(F)c2o1)C1Cc2ccccc2C1` [Compound 726], with 15 nM; and `CC(C)[C@H](NC(=O)c1ccc(Cl)cc1)C(=O)N(CC(=O)N[C@@H](CC(=O)O)C(=O)c1ncc(-c2c(Cl)cccc2Cl)o1)C1Cc2ccccc2C1` [Compound 733], with 7.5 nM; and `CC(=O)Nc1cccc(CN(CC(=O)N[C@H](C=O)CC(=O)O)C(=O)[C@@H](NC(=O)c2ccccc2)C(C)C)c1` [Compound 743, 3(S)-(2-((3-Acetylaminobenzyl)-(2(S)-benzoylamino-3-methylbutyryl)amino)acetylamino)-4-oxo-butyric Acid], with 60 nM.
On the same count and under the same terms, then `CC(C)[C@H](NC(=O)c1ccccc1)C(=O)N(CC(=O)N[C@H](C=O)CC(=O)O)Cc1cccc(NS(C)(=O)=O)c1` [Compound 745], with 45 nM; and `CC(C)(C)[C@H](NC(=O)c1nccc2ccccc12)C(=O)N(CC(=O)N[C@H](C=O)CC(=O)O)Cc1ccccc1` [Compound 747, 3(S)-(2(S)-(Benzyl-(2-((isoquinoline-1-carbonyl)amino)-3,3-dimethylbutyryl)amino)acetylamino)-4-oxo-butyric Acid], with 24 nM; and `CC(C)[C@H](NC(=O)c1nccc2ccccc12)C(=O)N(CC(=O)N[C@H](C=O)CC(=O)O)Cc1ccccc1` [Compound 748, 3(S)-(2(S)-(Benzyl-(2-((isoquinoline-1-carbonyl)amino)-3-methylbutyryl)amino)acetylamino)-4-oxo-butyric Acid], with 6 nM.
As for `CC(C)[C@H](NC(=O)c1cccc2ccccc12)C(=O)N(CC(=O)N[C@H](C=O)CC(=O)O)Cc1ccccc1` [Compound 749, 3(S)-(2(S)-(Benzyl-(2-((napthalene-1-carbonyl)amino)-3-methylbutyryl)amino)acetylamino)-4-oxo-butyric Acid], on ICE, the Ki is 7 nM.
Turning to `CC(C)[C@H](NC(=O)c1ccc(Cl)cc1)C(=O)N(CC(=O)N[C@H](C=O)CC(=O)O)Cc1ccccc1` [Compound 750, 3(5)-(2-((2(S)-(4-Chlorobenzoyl)amino-3-methylbutyryl)benzylamino)acetylamino)-4-oxo-butyric Acid], at ICE, affinity was put at a Ki of 90 nM. Compared with the last compound, the Ki is about 13-fold higher.
`CC(=O)Nc1ccc(C(=O)N[C@H](C(=O)N(CC(=O)N[C@H](C=O)CC(=O)O)Cc2ccccc2)C(C)C)cc1` [Compound 751, 3(S)-(2-((2(S)-(4-Acetylaminobenzoyl)amino-3-methylbutyryl)benzylamino)acetylamino)-4-oxo-butyric Acid] (Ac-[4Abz]V[Nphe]D-aldehyde) had a Ki on ICE of 71 nM.
In the case of `COc1cc(C(=O)C(=O)N[C@H](C(=O)N(CC(=O)N[C@H](C=O)CC(=O)O)Cc2ccccc2)C(C)C)cc(OC)c1OC` [Compound 752], the Ki on ICE turned out to be 62 nM.
For `CC(C)[C@H](NC(=O)C(=O)c1ccccc1)C(=O)N(CC(=O)N[C@H](C=O)CC(=O)O)Cc1ccccc1` [Compound 753, 3(S)-(2(S)-(Benzyl(3-methyl-2-(2-oxo-2-phenylacetylamino)butyryl)amino)acetylamino)-4-oxo-butyric Acid], on ICE, affinity was put at a Ki of 53 nM.
Compound `CC(C)[C@H](NC(=O)c1ccccc1)C(=O)N(CC(=O)N[C@@H](C=O)CCC(=O)O)Cc1ccccc1` [Compound 754, 4(R)-(2(S)-((2-Benzoylamino-3-methylbutyryl)benzylamino)acetylamino)-5-oxopentanoic Acid] (Bz-Val-[Nphe]-[dE]-aldehyde) displayed a Ki at ICE of 2500 nM.
The same measure, in the same setting: the figure for `CC(C)[C@H](NC(=O)c1nccc2ccccc12)C(=O)N(CC(=O)N[C@@H](C=O)CCC(=O)O)Cc1ccccc1` [Compound 755, 4(R)-(2(S)-(Benzyl-(2-((isoquinoline-1-carbonyl)amino)-3-methylbutyryl)amino)acetylamino)-5-oxopentanoic Acid] is 390 nM.
`CC(C)[C@H](NC(=O)OCc1ccccc1)C(=O)N(CC(=O)N[C@H](C=O)CC(=O)O)C1Cc2ccccc2C1` [Compound 757, 3(S)-(2-((2(S)-(Benzyloxycarbonylamino-3-methylbutyryl)-indan-2-yl)amino)acetylamino)-4-oxobutyric Acid] displayed a Ki on ICE of 170 nM.
As for “Tyr-Val-Ala-Asp-chloromethylketone (YVAD-CH2Cl)”, the inhibition of apoptosis result in test [1] is listed as “inhibition of apoptosis”.
